From paper PMC9919513, “A Practical Approach to Bicyclic Carbamoyl Pyridones with Application to the Synthesis of HIV-1 Integrase Strand Transfer Inhibitors” (Molecules, 2023)

System: HIV-1 vectors bearing the S230N IN mutant
Experiment: Single-round HIV-1 replication antiviral assay, S230N IN mutant
Type: cell-based
Details: EC50 of saturated 7 over EC50 of unsaturated 6, S230N IN
From the text: To further evaluate the antiviral activities of select compounds, we determined their EC50 values against the IN mutant S230N, which has been selected in vitro against an early Merck INSTI L810,830, a prototype for naphthyridine analogs.
Human embryonic kidney cell culture cell line 293 was acquired from the American Type Culture Collection (ATCC). The human osteosarcoma cell line, HOS, was obtained from Dr. Richard Schwartz (Michigan State University, East Lansing, MI, USA) and grown in Dulbecco’s modified Eagle’s medium (Invitrogen, Carlsbad, CA, USA) supplemented with 5% (v/v) fetal bovine serum, 5% newborn calf serum, and penicillin (50 units/mL) plus streptomycin (50 µg/mL; Quality Biological, Gaithersburg, MD, USA). The transfection vector, pNLNgoMIVR-ΔLUC was made from pNLNgoMIVR-ΔEnv.HSA by removing the HSA reporter gene and replacing it with a luciferase reporter gene between the NotI and XhoI restriction sites. To produce the new IN mutant S230N used in this study, the IN open reading frame was removed from pNLNgoMIVR-ΔENV.LUC by digestion with KpnI and SalI, and the resulting fragment was inserted between the KpnI and SalI sites of pBluescript KS+. Using that construct as the wild-type template, we prepared the following HIV-1 IN mutant S230N using the QuikChange II XL site-directed mutagenesis kit (Agilent Technologies, Santa Clara, CA, USA) protocol. The following sense oligonucleotides were used with matching cognate antisense oligonucleotides (not shown) (Integrated DNA Technologies, Coralville, IA, USA) in the mutagenesis: S230N 5′-[…]-3′. The DNA sequence of the IN mutant S230N construct was verified independently by DNA sequence determination. The mutated IN coding sequences from pBluescript KS+ were then subcloned into pNLNgoMIVR-ΔEnv.LUC (between the KpnI and SalI sites) to produce mutant HIV-1 constructs, which were also checked by DNA sequencing. […]. On the day prior to transfection, 293 cells were plated on 100 mm diameter dishes at a density of 1.5 × 10^6 cells per plate. Next, 293 cells were transfected with 16 µg of pNLNgoMIVR^-ΔLUC and 4 µg of pHCMV-g (obtained from Dr. Jane Burns, University of California, San Diego) using the calcium phosphate method. At approximately 6 h after the calcium phosphate precipitate was added, 293 cells were washed twice with phosphate-buffered saline (PBS) and incubated with fresh media for 48 h. The virus-containing supernatants were then harvested, clarified by low-speed centrifugation, filtrated, and diluted for preparation in antiviral infection assays. On the day prior to the screen, HOS cells were seeded in a 96-well luminescence cell culture plate at a density of 4000 cells in 100 µL per well. On the day of the screen for cellular cytotoxicity determination, cells were treated with compounds from a concentration range of 250 µM to 0.05 µM and then incubated at 37 °C for 48 h. On the day of the screen for antiviral activity infection assays, cells were treated with compounds from a concentration range of 5 µM to 0.0001 µM using 11 serial dilutions and then incubated at 37 °C for 3 h. After compound incorporation and activation in the cell, 100 µL of virus-stock (WT or mutant) diluted to achieve a luciferase signal between 0.2 and 1.5 Relative Luciferase Units (RLUs) was added to each well and further incubated at 37 °C for 48 h. Cellular cytotoxicity was measured by using the ATP Lite Luminescence detection system and monitored by adding 50 µL of cell lysis buffer from the Luminescence ATP detection assay to each well followed by mixing at 700 rpm at room temperature for 5 min using a compact thermomixer. […]

Structure (SMILES)	Ratio of the antiviral potencies after and before hydrogenation (S230N)
O=C(NCc1ccc(F)cc1F)c1cn2c(c(O)c1=O)C(=O)N(CCCCO)CC2 [Compound 7e, N-(2,4-Difluorobenzyl)-9-hydroxy-2-(4-hydroxybutyl)-1,8-dioxo-1,3,4,8-tetrahydro-2H-pyrido [1,2-a]pyrazine-7-carboxamide]	3.28

Same assay, conditions: Human immunodeficiency virus 1, HOS, 48 h, read-out: EC50, antiviral potency, S230N IN mutant

Structure (SMILES)	EC50 [µM]
O=C(NCc1ccc(F)cc1F)c1cn2ccn(CCCCCCO)c(=O)c2c(O)c1=O [Compound 6c, N-(2,4-Difluorobenzyl)-9-hydroxy-2-(6-hydroxyhexyl)-1,8-dioxo-1,8-dihydro-2H-pyrido [1,2-a]pyrazine-7-carboxamide]	0.0093
O=C(NCc1ccc(F)cc1F)c1cn2ccn(CCCCCO)c(=O)c2c(O)c1=O [Compound 6d, N-(2,4-Difluorobenzyl)-9-hydroxy-2-(5-hydroxypentyl)-1,8-dioxo-1,8-dihydro-2H-pyrido [1,2-a]pyrazine-7-carboxamide]	0.0154
O=C(NCc1ccc(F)cc1F)c1cn2ccn(CCCCO)c(=O)c2c(O)c1=O [Compound 6e, N-(2,4-Difluorobenzyl)-9-hydroxy-2-(4-hydroxybutyl)-1,8-dioxo-1,8-dihydro-2H-pyrido [1,2-a]pyrazine-7-carboxamide]	0.0307
O=C(NCc1ccc(F)cc1F)c1cn2c(c(O)c1=O)C(=O)N(CCCCCCO)CC2 [Compound 7c, N-(2,4-Difluorobenzyl)-9-hydroxy-2-(6-hydroxyhexyl)-1,8-dioxo-1,3,4,8-tetrahydro-2H-pyrido [1,2-a]pyrazine-7-carboxamide]	0.038
O=C(NCc1ccc(F)cc1F)c1cn2c(c(O)c1=O)C(=O)N(CCCCO)CC2 [Compound 7e, N-(2,4-Difluorobenzyl)-9-hydroxy-2-(4-hydroxybutyl)-1,8-dioxo-1,3,4,8-tetrahydro-2H-pyrido [1,2-a]pyrazine-7-carboxamide]	0.101
